Experimental data reported in PMC5218480 (PLoS ONE, 2017).

Tested on: MV-4-11 cells
Test: Gene expression microarray analysis (Affymetrix PrimeView) and GSEA
Assay type: cell-based, human
Parameters: RFU PODN (11730768_x_at) / Fold change /veh PODN (11730768_x_at) / RFU LINC00158 (11744669_a_at) / Fold change /veh LINC00158 (11744669_a_at) / RFU DUSP10 (11751237_a_at) / Fold change /veh DUSP10 (11751237_a_at) / RFU ID3 (11757404_x_at) / Fold change /veh ID3 (11757404_x_at) / RFU PLEKHG5 (11737974_s_at) / Fold change /veh PLEKHG5 (11737974_s_at) / RFU LRRC4B (11730491_at) / Fold change /veh LRRC4B (11730491_at) / RFU GIMAP4 (11747438_a_at) / Fold change /veh GIMAP4 (11747438_a_at) / RFU KRT8 (11758183_x_at) / Fold change /veh KRT8 (11758183_x_at) / RFU CNN1 (11734310_a_at) / Fold change /veh CNN1 (11734310_a_at) / RFU VPS37D (11726825_at) / Fold change /veh VPS37D (11726825_at) / RFU C10orf10 (11716522_x_at) / Fold change /veh C10orf10 (11716522_x_at) / RFU KIR2DL2 /// KIR2DL4 /// KIR2DL5A /// KIR2DL5B /// KIR2DS1 /// KIR2DS2 /// KIR2DS3 /// KIR2DS4 /// KIR3DL3 /// KIR3DL3 /// KIR3DS1 (11738374_at) / Fold change /veh KIR2DL2 /// KIR2DL4 /// KIR2DL5A /// KIR2DL5B /// KIR2DS1 /// KIR2DS2 /// KIR2DS3 /// KIR2DS4 /// KIR3DL3 /// KIR3DL3 /// KIR3DS1 (11738374_at) / RFU C1QL1 (11718748_at) / Fold change /veh C1QL1 (11718748_at) / RFU TMPRSS4 (11747572_a_at) / Fold change /veh TMPRSS4 (11747572_a_at) / RFU HAMP (11756126_x_at) / Fold change /veh HAMP (11756126_x_at) / RFU RNFT2 (11725882_a_at) / Fold change /veh RNFT2 (11725882_a_at) / RFU NR4A2 (11747474_a_at) / Fold change /veh NR4A2 (11747474_a_at) / RFU ABCC12 (11746883_a_at) / Fold change /veh ABCC12 (11746883_a_at) / RFU TMEM136 (11760407_x_at) / Fold change /veh TMEM136 (11760407_x_at) / RFU CLDN22 /// WWC2 (11732394_at) / Fold change /veh CLDN22 /// WWC2 (11732394_at) / RFU HLA-DPB1 (11760878_x_at) / Fold change /veh HLA-DPB1 (11760878_x_at) / RFU SPINT1 (11716480_a_at) / Fold change /veh SPINT1 (11716480_a_at) / RFU GAP43 (11754022_s_at) / Fold change /veh GAP43 (11754022_s_at) / RFU A4GNT (11735810_at) / Fold change /veh A4GNT (11735810_at) / RFU PRB3 (11715151_x_at) / Fold change /veh PRB3 (11715151_x_at) / RFU TUBB4B (11761932_at) / Fold change /veh TUBB4B (11761932_at) / RFU CAPN14 (11732068_a_at) / Fold change /veh CAPN14 (11732068_a_at) / RFU TMCC2 (11721928_a_at) / Fold change /veh TMCC2 (11721928_a_at) / RFU IRGQ (11745062_a_at) / Fold change /veh IRGQ (11745062_a_at) / RFU FAM174B (11720279_a_at) / Fold change /veh FAM174B (11720279_a_at) / RFU TMPRSS4 (11748680_a_at) / Fold change /veh TMPRSS4 (11748680_a_at) / RFU FAM212B (11763350_a_at) / Fold change /veh FAM212B (11763350_a_at) / RFU PLEKHG5 (11743358_a_at) / Fold change /veh PLEKHG5 (11743358_a_at) / RFU ZSCAN30 (11745921_a_at) / Fold change /veh ZSCAN30 (11745921_a_at) / RFU CMKLR1 (11741424_a_at) / Fold change /veh CMKLR1 (11741424_a_at) / RFU LOC101060620 /// MAPK8IP1 (11723275_at) / Fold change /veh LOC101060620 /// MAPK8IP1 (11723275_at) / RFU SPTSSB (11747773_x_at) / Fold change /veh SPTSSB (11747773_x_at) / RFU PRSS12 (11739890_at) / Fold change /veh PRSS12 (11739890_at) / RFU BIN1 (11741810_x_at) / Fold change /veh BIN1 (11741810_x_at) / RFU WNT11 (11732464_a_at) / Fold change /veh WNT11 (11732464_a_at) / RFU C10orf10 (11716521_a_at) / Fold change /veh C10orf10 (11716521_a_at) / RFU C5orf56 (11738089_at) / Fold change /veh C5orf56 (11738089_at) / RFU CYB561 (11721691_x_at) / Fold change /veh CYB561 (11721691_x_at) / RFU ANKRD19P (11752326_a_at) / Fold change /veh ANKRD19P (11752326_a_at) / RFU OR2T12 /// OR2T33 /// OR2T8 (11738714_s_at) / Fold change /veh OR2T12 /// OR2T33 /// OR2T8 (11738714_s_at) / RFU VCAN (11748164_a_at) / Fold change /veh VCAN (11748164_a_at) / RFU JSRP1 (11732532_at) / Fold change /veh JSRP1 (11732532_at) / RFU KRTAP10-11 (11738290_x_at) / Fold change /veh KRTAP10-11 (11738290_x_at) / RFU MYO3A (11730013_a_at) / Fold change /veh MYO3A (11730013_a_at) / RFU EBF3 (11725865_a_at) / Fold change /veh EBF3 (11725865_a_at) / RFU CAMK2N1 (11719241_x_at) / Fold change /veh CAMK2N1 (11719241_x_at) / RFU C5orf56 (11738088_a_at) / Fold change /veh C5orf56 (11738088_a_at) / RFU OLFML3 (11715873_a_at) / Fold change /veh OLFML3 (11715873_a_at) / RFU LOC100653217 /// NTM (11731650_a_at) / Fold change /veh LOC100653217 /// NTM (11731650_a_at) / RFU MAPK11 (11762145_a_at) / Fold change /veh MAPK11 (11762145_a_at) / RFU FIZ1 (11724087_x_at) / Fold change /veh FIZ1 (11724087_x_at) / RFU OASL (11726364_x_at) / Fold change /veh OASL (11726364_x_at) / RFU SOX15 (11748057_x_at) / Fold change /veh SOX15 (11748057_x_at) / RFU CD79A (11719716_a_at) / Fold change /veh CD79A (11719716_a_at) / RFU HIST1H1D (11736915_at) / Fold change /veh HIST1H1D (11736915_at) / RFU CASKIN2 (11723855_a_at) / Fold change /veh CASKIN2 (11723855_a_at) / RFU LOC730098 (11760151_x_at) / Fold change /veh LOC730098 (11760151_x_at) / RFU OR4N2 (11742367_at) / Fold change /veh OR4N2 (11742367_at) / RFU PRRT2 (11749266_a_at) / Fold change /veh PRRT2 (11749266_a_at) / RFU SNX32 (11753110_a_at) / Fold change /veh SNX32 (11753110_a_at) / RFU CDHR5 (11726645_a_at) / Fold change /veh CDHR5 (11726645_a_at) / RFU RCAN1 (11760418_a_at) / Fold change /veh RCAN1 (11760418_a_at) / RFU FAM167A (11723789_a_at) / Fold change /veh FAM167A (11723789_a_at) / RFU FAM26E (11764081_at) / Fold change /veh FAM26E (11764081_at) / RFU ISYNA1 (11749810_s_at) / Fold change /veh ISYNA1 (11749810_s_at) / RFU ACY1 (11761880_at) / Fold change /veh ACY1 (11761880_at) / RFU 11764098_at / Fold change /veh 11764098_at / RFU SAMD14 (11745864_x_at) / Fold change /veh SAMD14 (11745864_x_at) / RFU NPB (11741838_a_at) / Fold change /veh NPB (11741838_a_at) / RFU TMPRSS6 (11731388_a_at) / Fold change /veh TMPRSS6 (11731388_a_at) / RFU KRTAP10-2 (11738614_at) / Fold change /veh KRTAP10-2 (11738614_at) / RFU ARHGAP8 /// PRR5-ARHGAP8 (11727945_x_at) / Fold change /veh ARHGAP8 /// PRR5-ARHGAP8 (11727945_x_at) / RFU KRTAP5-7 /// NADSYN1 (11734609_at) / Fold change /veh KRTAP5-7 /// NADSYN1 (11734609_at) / RFU RASL12 (11751679_a_at) / Fold change /veh RASL12 (11751679_a_at) / RFU CDKN2B (11736163_a_at) / Fold change /veh CDKN2B (11736163_a_at) / RFU PRF1 (11729649_at) / Fold change /veh PRF1 (11729649_at) / RFU, ZNF638 /// ZNF638-IT1 / Fold change vs veh, ZNF638 /// ZNF638-IT1 / RFU, PANK3 / Fold change vs veh, PANK3 / RFU, SH3YL1 / Fold change vs veh, SH3YL1 / RFU, ZEB2 / Fold change vs veh, ZEB2 / RFU, NRIP1 / Fold change vs veh, NRIP1 / RFU, PTTG1IP / Fold change vs veh, PTTG1IP / RFU, CAPN2 / Fold change vs veh, CAPN2 / RFU, MED14 / Fold change vs veh, MED14 / RFU, SNORA58 / Fold change vs veh, SNORA58 / RFU, C1orf63 / Fold change vs veh, C1orf63 / RFU, LRRFIP1 / Fold change vs veh, LRRFIP1 / RFU, NDUFAF7 / Fold change vs veh, NDUFAF7 / RFU, SLC12A2 / Fold change vs veh, SLC12A2 / RFU, IBTK / Fold change vs veh, IBTK / RFU, ESF1 / Fold change vs veh, ESF1 / Fold change vs veh, TMEM50B / RFU, TAOK1 / Fold change vs veh, TAOK1 / RFU, ACBD3 / Fold change vs veh, ACBD3 / RFU, TMA16 / Fold change vs veh, TMA16 / RFU, RWDD3 / Fold change vs veh, RWDD3 / RFU, BCAT1 / Fold change vs veh, BCAT1 / RFU, EDEM3 / Fold change vs veh, EDEM3 / RFU, TMEM33 / Fold change vs veh, TMEM33 / RFU, WDR75 / Fold change vs veh, WDR75 / RFU, AHCTF1 / Fold change vs veh, AHCTF1 / RFU, TFRC / Fold change vs veh, TFRC / RFU, ZDHHC17 / Fold change vs veh, ZDHHC17 / RFU, NOM1 / Fold change vs veh, NOM1 / RFU, ARL8B / Fold change vs veh, ARL8B / RFU, ZBTB11 / Fold change vs veh, ZBTB11 / RFU, TAMM41 / Fold change vs veh, TAMM41 / RFU, KIAA1704 /// LOC100996395 / Fold change vs veh, KIAA1704 /// LOC100996395 / RFU, ING1 / Fold change vs veh, ING1 / RFU, TRMT61B / Fold change vs veh, TRMT61B / RFU, FUBP3 / Fold change vs veh, FUBP3 / RFU, TP53 / Fold change vs veh, TP53 / RFU, TNKS2 / Fold change vs veh, TNKS2 / RFU, ZFP14 / Fold change vs veh, ZFP14 / RFU, ACTR2 / Fold change vs veh, ACTR2 / RFU, PPP3R1 / Fold change vs veh, PPP3R1 / RFU, PIK3R1 / Fold change vs veh, PIK3R1 / RFU, HNRNPA1 / Fold change vs veh, HNRNPA1 / RFU, RNF170 / Fold change vs veh, RNF170 / RFU, ZNF28 / Fold change vs veh, ZNF28 / RFU, RNGTT / Fold change vs veh, RNGTT / RFU, OGT / Fold change vs veh, OGT / RFU, BRD1 / Fold change vs veh, BRD1 / RFU, MARS / Fold change vs veh, MARS / RFU, ZNF655 / Fold change vs veh, ZNF655 / RFU, FAHD1 / Fold change vs veh, FAHD1 / RFU, BDP1 / Fold change vs veh, BDP1 / RFU, LRRCC1 / Fold change vs veh, LRRCC1 / RFU, ARID1A / Fold change vs veh, ARID1A / RFU, ZNF146 / Fold change vs veh, ZNF146 / RFU, ZNF330 / Fold change vs veh, ZNF330 / RFU, GPN3 / Fold change vs veh, GPN3 / RFU, C9orf123 / Fold change vs veh, C9orf123 / RFU, N4BP2L2 / Fold change vs veh, N4BP2L2 / RFU, ARFIP1 / Fold change vs veh, ARFIP1 / RFU, FAM179B / Fold change vs veh, FAM179B / RFU, BCL10 / Fold change vs veh, BCL10 / RFU, UHRF1BP1L / Fold change vs veh, UHRF1BP1L / RFU, BET1 / Fold change vs veh, BET1 / RFU, CNOT2 / Fold change vs veh, CNOT2 / RFU, ZNF268 / Fold change vs veh, ZNF268 / Fold change vs veh, ZNF507 / RFU, DGCR2 / Fold change vs veh, DGCR2 / RFU, WDSUB1 / Fold change vs veh, WDSUB1 / Fold change vs veh, HSP90B1 /// MIR3652 / RFU, ADSS / Fold change vs veh, ADSS / RFU, GK / Fold change vs veh, GK / RFU, ZNF148 / Fold change vs veh, ZNF148 / RFU, TAF9 / Fold change vs veh, TAF9 / RFU, SLC1A5 / Fold change vs veh, SLC1A5 / RFU, SLMO2 / Fold change vs veh, SLMO2 / RFU, ABCC4 / Fold change vs veh, ABCC4 / RFU, LOC101060439 /// RAP1B / Fold change vs veh, LOC101060439 /// RAP1B / RFU, RFX7 / Fold change vs veh, RFX7 / RFU, GTPBP10 / Fold change vs veh, GTPBP10 / RFU, CNEP1R1 / Fold change vs veh, CNEP1R1 / RFU, BIVM-ERCC5 /// ERCC5 / Fold change vs veh, BIVM-ERCC5 /// ERCC5 / RFU, ILF3 / Fold change vs veh, ILF3 / RFU 11762660_at / Fold change /veh 11762660_at / RFU VCAN (11757783_s_at) / Fold change /veh VCAN (11757783_s_at) / RFU DDX43 (11728927_at) / Fold change /veh DDX43 (11728927_at) / RFU KRT8 (11758188_x_at) / Fold change /veh KRT8 (11758188_x_at) / RFU NKD1 (11759106_at) / Fold change /veh NKD1 (11759106_at) / RFU SRD5A1 (11742802_a_at) / Fold change /veh SRD5A1 (11742802_a_at) / RFU TPSAB1 /// TPSB2 (11721975_s_at) / Fold change /veh TPSAB1 /// TPSB2 (11721975_s_at) / RFU GSTM3 (11746129_a_at) / Fold change /veh GSTM3 (11746129_a_at) / RFU IL23R (11737362_x_at) / Fold change /veh IL23R (11737362_x_at) / RFU TMEM51 (11727254_a_at) / Fold change /veh TMEM51 (11727254_a_at) / RFU PIWIL2 (11732686_x_at) / Fold change /veh PIWIL2 (11732686_x_at) / RFU ORM1 (11744905_x_at) / Fold change /veh ORM1 (11744905_x_at) / RFU CCDC152 (11743942_at) / Fold change /veh CCDC152 (11743942_at) / RFU ECM1 (11717891_a_at) / Fold change /veh ECM1 (11717891_a_at) / RFU IL23R (11748794_a_at) / Fold change /veh IL23R (11748794_a_at) / RFU TNFAIP8L3 (11732012_x_at) / Fold change /veh TNFAIP8L3 (11732012_x_at) / RFU MBOAT4 (11741988_at) / Fold change /veh MBOAT4 (11741988_at) / RFU 11764193_at / Fold change /veh 11764193_at / RFU TMEM53 (11763286_at) / Fold change /veh TMEM53 (11763286_at) / RFU MAGEB2 (11727129_at) / Fold change /veh MAGEB2 (11727129_at) / RFU TMEM200A (11744735_a_at) / Fold change /veh TMEM200A (11744735_a_at) / RFU CCDC152 (11751479_a_at) / Fold change /veh CCDC152 (11751479_a_at) / RFU FAM211A (11726209_a_at) / Fold change /veh FAM211A (11726209_a_at) / RFU RGS16 (11746705_a_at) / Fold change /veh RGS16 (11746705_a_at) / RFU VCAN (11755009_s_at) / Fold change /veh VCAN (11755009_s_at) / RFU RHOB (11743442_s_at) / Fold change /veh RHOB (11743442_s_at) / RFU RGS16 (11720943_a_at) / Fold change /veh RGS16 (11720943_a_at) / RFU RGS16 (11720944_at) / Fold change /veh RGS16 (11720944_at) / RFU, VPS4B / Fold change vs veh, VPS4B / RFU, CREB1 / Fold change vs veh, CREB1 / RFU, DNAJC13 / Fold change vs veh, DNAJC13 / RFU, GNAQ / Fold change vs veh, GNAQ / RFU, CDK5R1 / Fold change vs veh, CDK5R1 / RFU, ZRANB3 / Fold change vs veh, ZRANB3 / RFU, CUL4A / Fold change vs veh, CUL4A / RFU, CCNY / Fold change vs veh, CCNY / RFU, UFL1 / Fold change vs veh, UFL1 / RFU, COG3 / Fold change vs veh, COG3 / RFU, DIAPH2 / Fold change vs veh, DIAPH2 / RFU, SKA2 / Fold change vs veh, SKA2 / RFU, AFF3 / Fold change vs veh, AFF3 / RFU, LMF1 / Fold change vs veh, LMF1 / RFU, IPO11 / Fold change vs veh, IPO11 / RFU, DFFB / Fold change vs veh, DFFB / RFU, FOXP1 / Fold change vs veh, FOXP1 / RFU, CARD8 / Fold change vs veh, CARD8 / RFU, STRN3 / Fold change vs veh, STRN3 / RFU, ADK / Fold change vs veh, ADK / RFU, RASSF2 / Fold change vs veh, RASSF2 / RFU, WIPF1 / Fold change vs veh, WIPF1 / RFU, LARP1B / Fold change vs veh, LARP1B / RFU, RASA1 / Fold change vs veh, RASA1 / RFU, RB1 / Fold change vs veh, RB1 / RFU, PPFIA1 / Fold change vs veh, PPFIA1 / RFU, MAT2A / Fold change vs veh, MAT2A / RFU, CCT5 / Fold change vs veh, CCT5 / RFU, WDR92 / Fold change vs veh, WDR92 / RFU, CUX1 / Fold change vs veh, CUX1 / RFU, TTC7A / Fold change vs veh, TTC7A / RFU, TMEM135 / Fold change vs veh, TMEM135 / RFU, DEPTOR / Fold change vs veh, DEPTOR / RFU, CPM / Fold change vs veh, CPM / RFU, DNAJB6 / Fold change vs veh, DNAJB6 / RFU, CACNA2D3 / Fold change vs veh, CACNA2D3 / RFU, DTX4 / Fold change vs veh, DTX4 / RFU, TFCP2 / Fold change vs veh, TFCP2 / RFU, GMCL1 /// GMCL1P1 / Fold change vs veh, GMCL1 /// GMCL1P1 / RFU, AEBP2 / Fold change vs veh, AEBP2 / RFU, SNHG1 /// SNORD22 /// SNORD25 /// SNORD26 /// SNORD27 /// SNORD28 /// SNORD29 /// SNORD31 / Fold change vs veh, SNHG1 /// SNORD22 /// SNORD25 /// SNORD26 /// SNORD27 /// SNORD28 /// SNORD29 /// SNORD31 / Fold change (Aza/veh), C12orf56 (ProbeSet 11735607_a_at) / Fold change (ACY-1035/veh), C12orf56 (ProbeSet 11735607_a_at) / Fold change (Aza/veh), FGFR1OP (ProbeSet 11751329_s_at) / Fold change (ACY-1035/veh), FGFR1OP (ProbeSet 11751329_s_at) / Fold change (Aza/veh), VPS36 (ProbeSet 11739960_a_at) / Fold change (ACY-1035/veh), VPS36 (ProbeSet 11739960_a_at) / RFU SYPL1 (11715823_x_at) / Fold change /veh SYPL1 (11715823_x_at) / RFU IGFBP7 (11715501_s_at) / Fold change /veh IGFBP7 (11715501_s_at) / RFU REEP3 (11722064_at) / Fold change /veh REEP3 (11722064_at) / RFU IGLL1 (11728026_x_at) / Fold change /veh IGLL1 (11728026_x_at): dose or concentration left out as unconfirmed
Settings: MV-4-11 cells, 48 hours

In the case of `Nc1ccc(-c2cccs2)cc1NC(=O)c1ccc2c(c1)cc(C1CC1)n2CCN1CCOCC1` [ACY-1035], the “Fold change /veh SPTSSB (11747773_x_at)” value is reported as 0.98.
